Experimental findings from patent US20210115104A1, “AMYLIN ANALOGUES” (Zealand Pharma A/S, priority 2015, published 2021) are described below.

Molecules are shown by their SMILES. *1 amine or outer side, *2 acyl side, *3 side chain or, on linkers, in order; H or OH if unused. Where a SMILES comes first, the peptide text is derived from it. Bridges are numbered along the chain shown (N, C = ends). [ ]: non-standard residue; d: D form. The star is where a group is joined. C20 diacid = O=C(O)CCCCCCCCCCCCCCCCCCC(=O)*; γGlu = O=C(O)[C@H](CCC(=O)[*:2])N[*:1]; Hyp = O=C(O)[C@@H]1C[C@@H](O)CN1; NMeI = CC[C@H](C)[C@H](NC)C(=O)O; Aad = N[C@@H](CCCC(=O)O)C(=O)O; Sar = CNCC(=O)O

Series [1] has as its target T1, human calcitonin receptor (hCTR2) (Homo sapiens, UniProt P30988).
T1 construct: expressed in transfected cells
T1 sequence (P30988 25-474): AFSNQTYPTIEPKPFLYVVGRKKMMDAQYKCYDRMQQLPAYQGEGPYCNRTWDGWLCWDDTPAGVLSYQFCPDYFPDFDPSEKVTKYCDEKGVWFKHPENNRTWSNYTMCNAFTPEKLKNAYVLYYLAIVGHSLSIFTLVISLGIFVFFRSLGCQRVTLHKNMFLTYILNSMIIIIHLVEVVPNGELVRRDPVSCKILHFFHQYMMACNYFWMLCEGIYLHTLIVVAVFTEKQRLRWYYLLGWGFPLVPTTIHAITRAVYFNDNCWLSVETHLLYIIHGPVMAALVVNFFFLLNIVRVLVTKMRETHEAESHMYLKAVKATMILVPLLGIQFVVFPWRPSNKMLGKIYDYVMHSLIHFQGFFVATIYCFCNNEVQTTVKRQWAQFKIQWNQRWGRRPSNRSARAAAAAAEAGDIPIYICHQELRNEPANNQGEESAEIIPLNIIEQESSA
The series is described as follows: hCTR2 cAMP assay (AlphaScreen) in COS7 cells. It counts as cell-based. To be noted: cAMP induction, COS7 cells expressing hCTR2; Table 1; read-out: hCTR2 EC50. A digest of the protocol:
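Stable hCTR2 clone in RAMP-naïve COS7 cells stimulated 15 min at 37 °C with increasing peptide concentrations in Tyrode buffer pH 7.4 containing IBMX and 0.1% casein. cAMP in lysates measured by AlphaScreen; EC50 from 4-parameter logistic fit.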
(In general: Changes in cAMP serve as a functional read-out for many G protein-coupled receptors.)

For series [2], the target named is T2, human amylin receptor 3 (hAMYR3), hCTR2 co-expressed with hRAMP3 (Homo sapiens, UniProt O60896+P30988).
T2 construct: expressed in transfected cells
T2 sequence (P30988 25-474): T1 sequence (P30988 25-474)
T2 sequence (O60896 24-148 partner): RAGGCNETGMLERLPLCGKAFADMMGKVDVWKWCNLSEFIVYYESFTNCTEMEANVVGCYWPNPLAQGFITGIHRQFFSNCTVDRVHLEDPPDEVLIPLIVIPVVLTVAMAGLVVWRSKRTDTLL
Nature of the series: hAMYR3 cAMP assay (AlphaScreen) in COS7 cells. Conditions: cAMP induction, COS7 cells expressing hAMYR3; Table 1; read-out: hAMYR3 EC50. It counts as cell-based. A digest of the protocol:
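Stable COS7 clone co-expressing hCTR2 and hRAMP3 was exposed to increasing peptide concentrations in Tyrode buffer (pH 7.4) with 100 µM IBMX and 0.1% casein for 15 min at 37 °C. Lysate cAMP was measured by AlphaScreen; EC50 came from 4-parameter logistic fitting.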

The nature of series [3]: Assessment of physical stability (Thioflavin T fibrillation). It is filed as physicochemical. Conditions: 1 mg/ml, 40° C., ThT; for Fibrillation pH 4.0 (Ac): 50 mM acetate buffer pH 4.0, 96 hours; for Fibrillation pH 7.0 (His): 50 mM histidine buffer pH 7.0, 96 hours; for Fibrillation pH 7.0 (Phos.): 50 mM phosphate buffer pH 7.0, 96 hours. Set-up: key: FND = fibrillation not detected; FD = fibrillation detected. A digest of the protocol: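 1 mg/ml peptide with 40 μM ThT in 50 mM phosphate pH 7.0, 50 mM histidine pH 7.0 or 50 mM acetate pH 4.0, in triplicate. Fluorescence read every 10 min after 300 s agitation over 96 h at 40 °C. Lag-time (h) is the intersection of linear fits to stable and growth phases.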

A short description of series [4]: Assessment of chemical stability (RP-HPLC normalized purity). To be noted: for Normalized purity after 7 days, 40° C., pH 4: pH 4, 0.2 mg/ml; for Normalized purity after 7 days, 40° C., pH 4 / Normalized purity after 7 days, 40° C., pH 6 / Normalized purity after 7 days, 40° C., pH 7.5 / Normalized purity after 7 days, 40° C., pH 9: Table 1; for Normalized purity after 7 days, 40° C., pH 6: pH 6, 0.2 mg/ml; for Normalized purity after 7 days, 40° C., pH 7.5: pH 7.5, 0.2 mg/ml; for Normalized purity after 7 days, 40° C., pH 9: pH 9, 0.2 mg/ml. It is filed as physicochemical. A digest of the protocol:
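Peptides at 0.2 mg/ml in water adjusted to pH 4, 6, 7.5 or 9, incubated at 40° C for 7 days. Main-peak area-% by RP-HPLC (C8 ammonium formate or C18 TFA gradient, UV 220 nm), normalized to T=0 as 100.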

For the compound `CC[C@H](C)[C@@H](C(=O)N[C@@H](CC(C)C)C(=O)N[C@@H](CO)C(=O)N[C@@H](CO)C(=O)N[C@H](C(=O)N[C@@H](CCC(=O)O)C(=O)N[C@H](C(=O)NCC(=O)N[C@@H](CO)C(=O)NCC(=O)N[C@H](C(=O)N1C[C@H](O)C[C@H]1C(N)=O)[C@@H](C)O)C(C)C)[C@@H](C)O)N(C)C(=O)[C@H](C)NC(=O)CN(C)C(=O)[C@H](Cc1ccccc1)NC(=O)[C@H](CCCNC(=N)N)NC(=O)[C@H](CCC(N)=O)NC(=O)[C@H](CC(C)C)NC(=O)[C@H](Cc1ccccc1)NC(=O)[C@H](Cc1c[nH]cn1)NC(=O)[C@H](C)NC(=O)[C@H](CC(C)C)NC(=O)[C@H](CCCNC(=N)N)NC(=O)[C@H](CCC(N)=O)NC(=O)[C@@H](NC(=O)[C@H](C)NC(=O)[C@@H]1CSSC[C@H](NC(=O)[C@H](CCCNC(=N)N)NC(=O)CC[C@H](NC(=O)CCCCCCCCCCCCCCCCCCC(=O)O)C(=O)O)C(=O)N[C@@H](CC(N)=O)C(=O)N[C@@H]([C@@H](C)O)C(=O)N[C@@H](C)C(=O)N[C@@H]([C@@H](C)O)C(=O)N1)[C@@H](C)O` [Compound 79, [19CD]-isoGlu-R-C( )-NTAT-C( )-ATQRLAHFLQRF-Gly(Me)-A-Ile(Me)-LSSTEVGSGT-Hyp-NH2] ({C20 diacid-γGlu}-RCNTATCATQRLAHFLQRF[Sar]A[NMeI]LSSTEVGSGT[Hyp]-NH2; disulfide 2-7), the EC50 – broadly, the concentration giving half of the maximal effect – in series [1] amounted to 0.12 nM. Moreover, the EC50 in series [2] was determined as 0.23 nM. Also, in series [3], the “Fibrillation pH 4.0 (Ac)” value is on record as “FND”, the “Fibrillation pH 7.0 (His)” value is listed as “FD” and the “Fibrillation pH 7.0 (Phos.)” value is “FD”. For the same compound, in series [4], the “Normalized purity after 7 days, 40° C., pH 4” value is “A (A = >90%)”; the “Normalized purity after 7 days, 40° C., pH 6” value is “A (A = >90%)”; the “Normalized purity after 7 days, 40° C., pH 7.5” value was “B (B = 70-90%)”; the “Normalized purity after 7 days, 40° C., pH 9” value was “B (B = 70-90%)”.
Turning to `CC[C@H](C)[C@@H](C(=O)N[C@@H](CC(C)C)C(=O)N[C@@H](CO)C(=O)N[C@@H](CO)C(=O)N[C@H](C(=O)N[C@@H](CCC(=O)O)C(=O)N[C@H](C(=O)NCC(=O)N[C@@H](CO)C(=O)N[C@@H](CC(N)=O)C(=O)N[C@H](C(=O)N1C[C@H](O)C[C@H]1C(N)=O)[C@@H](C)O)C(C)C)[C@@H](C)O)N(C)C(=O)[C@H](C)NC(=O)CN(C)C(=O)[C@H](Cc1ccccc1)NC(=O)[C@H](CO)NC(=O)[C@H](CO)NC(=O)[C@H](CCCNC(=N)N)NC(=O)[C@H](CCC(N)=O)NC(=O)[C@H](CC(C)C)NC(=O)[C@H](Cc1ccccc1)NC(=O)[C@H](CCCC(=O)O)NC(=O)[C@H](C)NC(=O)[C@H](CC(C)C)NC(=O)[C@H](CCCNC(=N)N)NC(=O)[C@H](CC(=O)O)NC(=O)[C@@H](NC(=O)[C@H](C)NC(=O)[C@@H]1CSSC[C@H](NC(=O)[C@H](CCCNC(=N)N)NC(=O)CC[C@H](NC(=O)CCCCCCCCCCCCCCCCCCC(=O)O)C(=O)O)C(=O)N[C@@H](CCC(N)=O)C(=O)N[C@@H]([C@@H](C)O)C(=O)N[C@@H](C)C(=O)N[C@@H]([C@@H](C)O)C(=O)N1)[C@@H](C)O` [Compound 89, [19CD]-isoGlu-R-C( )-QTAT-C( )-ATDRLA-Aad-FLQRSSF-Gly(Me)-A-Ile(Me)-LSSTEVGSNT-Hyp-NH2] ({C20 diacid-γGlu}-RCQTATCATDRLA[Aad]FLQRSSF[Sar]A[NMeI]LSSTEVGSNT[Hyp]-NH2; disulfide 2-7), the concentration giving a half-maximal response (EC50) in series [1] came to 0.16 nM. Also, in series [2], the concentration for a half-maximal effect (EC50) worked out at 0.2 nM. Moreover, in series [3], the “Fibrillation pH 4.0 (Ac)” value is given as “FND”, the “Fibrillation pH 7.0 (His)” value is “FND” and the “Fibrillation pH 7.0 (Phos.)” value was “FND”. Besides, in series [4], the “Normalized purity after 7 days, 40° C., pH 4” value is recorded as “A (A = >90%)”; the “Normalized purity after 7 days, 40° C., pH 6” value was “A (A = >90%)”; the “Normalized purity after 7 days, 40° C., pH 7.5” value is “A (A = >90%)”; the “Normalized purity after 7 days, 40° C., pH 9” value is “B (B = 70-90%)”. In series [4] (pH 4, repeat of Example 6 for pairs with/without Asn-Asn at 21-22), the “Normalized purity pH 4 (Table 5)” value is “A (A = >90%)”. In addition, the “Normalized purity pH 6 (Table 5)” value in series [4] (pH 6, repeat of Example 6 for pairs with/without Asn-Asn at 21-22) is reported as “A (A = >90%)”. Besides, the “Normalized purity pH 7.5 (Table 5)” value in series [4] (pH 7.5, repeat of Example 6 for pairs with/without Asn-Asn at 21-22) was “A (A = >90%)”. Further, the “Normalized purity pH 9 (Table 5)” value in series [4] (pH 9, repeat of Example 6 for pairs with/without Asn-Asn at 21-22) is on record as “A (A = >90%)”.
